Assay results: US20250144067A1, “PERSONALIZED STARVATION THERAPY FOR CANCER” (Faeth Therapeutics, Inc., priority 2021, published 2025)
Structures can show the parent of a compound that is named as a salt. Where two headings read alike, the source gives them in different places.

How the values were obtained:
[1] = system: NCI-H292 lung cancer cells; assay: FDA drug screening, complete media vs cholesterol-free media without statin (TABLE 1); format: cell-based, human
[2] = system: NCI-H292 lung cancer cells; assay: FDA drug screening, complete media vs cholesterol-free media with simvastatin (TABLE 2); format: cell-based, human
[3] = NCI-H292 cells, cholesterol-free media without statin, FDA drug library screen
[4] = NCI-H292 cells, complete media, FDA drug library screen
[5] = complete vs cholesterol-free media, >0 enhanced anti-cancer activity, about 0 neutral, <0 antagonist
[6] = NCI-H292 cells, drug in cholesterol-free media with simvastatin 0.04 μM
[7] = NCI-H292 cells, drug in complete media
[8] = complete media vs cholesterol-free media + simvastatin (0.04 μM), >0 enhanced anti-cancer activity, about 0 neutral, <0 antagonist
[9] = Complete minus Cholesterol-free, >0 enhanced anti-cancer activity, about 0 neutral, <0 antagonist
[10] = NCI-H292 cells, cholesterol-free media with simvastatin 0.04 μM, cell growth value in FDA drug screen
[11] = NCI-H292 cells, complete media, cell growth value in FDA drug screen
[12] = complete media minus cholesterol-free media + simvastatin, >0 enhanced anti-cancer activity, about 0 neutral, <0 antagonist
[13] = NCI-H292 cells, FDA library drug in cholesterol-free media with simvastatin 0.04 μM
[14] = NCI-H292 cells, FDA library drug in complete media
[15] = NCI-H292 cells, cholesterol-free media without statin
[16] = complete vs cholesterol-free media, greater than 0 enhanced anti-cancer activity, about 0 neutral, below 0 antagonists
[17] = NCI-H292 cells, FDA drug library screen, cholesterol-free media with simvastatin 0.04 μM
[18] = NCI-H292 cells, FDA drug library screen, complete media
[19] = NCI-H292 cells, cholesterol-free media with simvastatin 0.04 μM, FDA drug library screen (TABLE 2)
[20] = NCI-H292 cells, complete media, FDA drug library screen (TABLE 2)
[21] = complete media minus cholesterol-free media + simvastatin (0.04 μM), >0 enhanced anti-cancer activity, about 0 neutral, <0 antagonist
[22] = Complete minus Cholesterol-free, greater than 0 enhanced anti-cancer activity, about 0 neutral, below 0 antagonist
[23] = NCI-H292 cells, FDA drug library screen, cholesterol-free media without statin

Molecule: O=c1[nH]c(=O)n([C@H]2C[C@H](O)[C@@H](CO)O2)cc1I [Idoxuridine]
- Cholesterol-free [1, 3]: 0.8751
- Complete [1, 4]: 1.387
- Difference [1, 5]: 0.51
- Cholesterol-free media + simvastatin (0.04 μM) [2, 6]: 1.124
- Complete Media [2, 7]: 0.9636
- Difference [2, 8]: −0.16

Molecule: Gentamicin (sulfate)
- Difference [1, 9]: 0.07
- Cholesterol-free [1, 3]: 0.9104
- Complete [1, 4]: 0.9799
- Cholesterol-free media + simvastatin (0.04 μM) [2, 10]: 0.8679
- Complete Media [2, 11]: 0.9575
- Difference [2, 12]: 0.09

Molecule: CC(C)C(=O)Oc1ccc(CO)cc1[C@H](CCN(C(C)C)C(C)C)c1ccccc1 [Fesoterodine]
- Cholesterol-free [1, 3]: 0.8973
- Complete [1, 4]: 1.535
- Difference [1, 5]: 0.64
- Cholesterol-free media + simvastatin (0.04 μM) [2, 13]: 1.104
- Complete Media [2, 14]: 0.8265
- Difference [2, 8]: −0.28

Molecule: CN(C)CC/C=C1/c2ccccc2Sc2ccc(Cl)cc21 [Chlorprothixene (hydrochloride)]
- Cholesterol-free [1, 15]: 1.492
- Complete ([1]; NCI-H292 cells, complete media): 1.027
- Difference [1, 16]: −0.46
- Cholesterol-free media + simvastatin (0.04 μM) [2, 17]: 0.8374
- Complete Media [2, 18]: 1.056
- Difference [2, 12]: 0.22

Molecule: Chondroitin (sulfate)
- Difference ([1]; Complete minus Cholesterol-free, […]): −0.48
- Cholesterol-free ([1]; NCI-H292 cells in cholesterol-free media without statin): 1.247
- Complete ([1]; NCI-H292 cells in complete media): 0.7715
- Cholesterol-free media + simvastatin (0.04 μM) ([2]; NCI-H292 cells, cholesterol-free media with simvastatin 0.04 μM, […]): 1.097
- Complete Media ([2]; NCI-H292 cells, complete media, […]): 1.158
- Difference ([2]; complete media minus cholesterol-free media + simvastatin, […]): 0.06

Molecule: NC[C@H]1O[C@H](O[C@H]2[C@H](O)[C@@H](O[C@H]3O[C@H](CO)[C@@H](O)[C@H](N)[C@H]3O)[C@H](N)C[C@@H]2N)[C@H](N)C[C@@H]1O [Tobramycin]
- Cholesterol-free [1, 3]: 1.416
- Complete [1, 4]: 1.802
- Difference [1, 5]: 0.39
- Cholesterol-free media + simvastatin (0.04 μM) [2, 10]: 0.8625
- Complete Media [2, 11]: 0.9069
- Difference [2, 12]: 0.04

Molecule: CN(C)C(=N)N=C(N)N [Metformin (hydrochloride)]
- Cholesterol-free [1, 3]: 0.9765
- Complete [1, 4]: 1.069
- Difference [1, 5]: 0.09
- Cholesterol-free media + simvastatin (0.04 μM) [2, 10]: 0.8358
- Complete Media [2, 11]: 0.8942
- Difference [2, 12]: 0.06

Molecule: Sertaconazole (nitrate)
- Cholesterol-free [1, 3]: 0.6893
- Complete [1, 4]: 0.8595
- Difference [1, 5]: 0.17
- Cholesterol-free media + simvastatin (0.04 μM) [2, 17]: 0.3702
- Complete Media [2, 18]: 0.8436
- Difference [2, 12]: 0.47

Molecule: CN1C(CCl)Nc2cc(Cl)c(S(N)(=O)=O)cc2S1(=O)=O (stereo not drawn) [Methyclothiazide]
- Difference [1, 9]: −0.24
- Cholesterol-free [1, 15]: 1.096
- Complete ([1]; NCI-H292 cells, complete media): 0.856
- Cholesterol-free media + simvastatin (0.04 μM) [2, 19]: 1.147
- Complete Media [2, 20]: 1.081
- Difference [2, 21]: −0.07

Molecule: C[N+]1(C)[C@@H]2CC[C@H]1C[C@@H](OC(=O)C(CO)c1ccccc1)C2 (stereo partly drawn) [Atropine methyl bromide]
- Cholesterol-free [1, 3]: 1.114
- Complete [1, 4]: 1.708
- Difference [1, 5]: 0.59
- Cholesterol-free media + simvastatin (0.04 μM) [2, 6]: 1.143
- Complete Media [2, 7]: 0.9562
- Difference [2, 8]: −0.19

Molecule: C[C@@H](NCCCc1cccc(C(F)(F)F)c1)c1cccc2ccccc12 [Cinacalcet (hydrochloride)]
- Cholesterol-free [1, 15]: 1.099
- Complete ([1]; NCI-H292 cells, complete media): 0.7862
- Difference [1, 16]: −0.31
- Cholesterol-free media + simvastatin (0.04 μM) [2, 10]: 0.9304
- Complete Media [2, 11]: 0.9877
- Difference [2, 12]: 0.06

Molecule: CN(C)CCN(Cc1ccc(Cl)cc1)c1ccccn1 [Chloropyramine hydrochloride]
- Difference [1, 22]: −0.17
- Cholesterol-free [1, 23]: 1.558
- Complete [1, 18]: 1.385
- Cholesterol-free media + simvastatin (0.04 μM) [2, 10]: 0.999
- Complete Media [2, 11]: 1.055
- Difference [2, 12]: 0.06

Molecule: O=C(COc1ccc(Cl)cc1)N1CCN(Cc2ccc3c(c2)OCO3)CC1 [Fipexide]
- Difference [1, 9]: −0.02
- Cholesterol-free [1, 3]: 1.201
- Complete [1, 4]: 1.177
- Cholesterol-free media + simvastatin (0.04 μM) [2, 13]: 1.655
- Complete Media [2, 14]: 1.225
- Difference [2, 8]: −0.43

Molecule: C[N+](C)(C)NCCC(=O)[O-] [Mildronate]
- Difference [1, 22]: −0.08
- Cholesterol-free [1, 23]: 0.9949
- Complete [1, 18]: 0.9146
- Cholesterol-free media + simvastatin (0.04 μM) [2, 19]: 0.9839
- Complete Media [2, 20]: 0.9927
- Difference [2, 21]: 0.01

Molecule: CCc1nc(N)nc(N)c1-c1ccc(Cl)cc1 [Pyrimethamine]
- Cholesterol-free [1, 3]: 1.197
- Complete [1, 4]: 1.426
- Difference [1, 5]: 0.23
- Cholesterol-free media + simvastatin (0.04 μM) [2, 6]: 1.205
- Complete Media [2, 7]: 1.02
- Difference [2, 8]: −0.19

Molecule: COc1cc(NS(C)(=O)=O)ccc1Nc1c2ccccc2nc2ccccc12 [Amsacrine]
- Difference [1, 9]: −0.20
- Cholesterol-free [1, 15]: 0.3482
- Complete ([1]; NCI-H292 cells, complete media): 0.1517
- Cholesterol-free media + simvastatin (0.04 μM) [2, 19]: 0.3844
- Complete Media [2, 20]: 0.346
- Difference [2, 21]: −0.04

Molecule: CCOc1ccc(Cc2cc([C@@H]3O[C@H](CO)[C@@H](O)[C@H](O)[C@H]3O)ccc2Cl)cc1 [Dapagliflozin]
- Difference [1, 22]: −0.18
- Cholesterol-free [1, 23]: 1.052
- Complete [1, 18]: 0.875
- Cholesterol-free media + simvastatin (0.04 μM) [2, 13]: 1.024
- Complete Media [2, 14]: 0.6919
- Difference [2, 8]: −0.33

Molecule: NC(=O)c1cccnc1 [Nicotinamide]
- Difference [1, 22]: −0.17
- Cholesterol-free [1, 23]: 0.8882
- Complete [1, 18]: 0.716
- Cholesterol-free media + simvastatin (0.04 μM) [2, 17]: 0.9853
- Complete Media [2, 18]: 0.9029
- Difference [2, 8]: −0.08

Molecule: O=c1n(CCCN2CCN(c3cccc(Cl)c3)CC2)nc2ccccn12 [Trazodone (hydrochloride)]
- Cholesterol-free [1, 15]: 1.4
- Complete ([1]; NCI-H292 cells, complete media): 1.032
- Difference [1, 16]: −0.37
- Cholesterol-free media + simvastatin (0.04 μM) [2, 17]: 0.8105
- Complete Media [2, 18]: 1.053
- Difference [2, 12]: 0.24

Molecule: Brimonidine (tartrate)
- Cholesterol-free [1]: 1.093
- Complete [1]: 0.9545
- Difference [1]: −0.14
- Cholesterol-free media + simvastatin (0.04 μM) [2]: 1.704
- Complete Media [2]: 1.309
- Difference [2]: −0.39

Molecule: CCOc1ccccc1OCCN[C@H](C)Cc1ccc(OC)c(S(N)(=O)=O)c1 [Tamsulosin]
- Difference [1, 22]: −0.14
- Cholesterol-free [1, 23]: 1.006
- Complete [1, 18]: 0.8695
- Cholesterol-free media + simvastatin (0.04 μM) [2, 6]: 1.361
- Complete Media [2, 7]: 1.178
- Difference [2, 8]: −0.18

Molecule: O=c1[nH]c2ccccc2n1CCCN1CCC(n2c(=O)[nH]c3cc(Cl)ccc32)CC1 [Domperidone]
- Difference [1, 22]: −0.14
- Cholesterol-free [1, 23]: 1.085
- Complete [1, 18]: 0.9412
- Cholesterol-free media + simvastatin (0.04 μM) [2, 10]: 0.9833
- Complete Media [2, 11]: 1.061
- Difference [2, 12]: 0.08

Molecule: CNCCc1ccccn1 [Betahistine]
- Difference [1, 22]: −0.10
- Cholesterol-free [1, 23]: 1.192
- Complete [1, 18]: 1.087
- Cholesterol-free media + simvastatin (0.04 μM) [2, 6]: 1.266
- Complete Media [2, 7]: 1.062
- Difference [2, 8]: −0.20
